For 1 molecule, EC50 results are on record in paper PMC6024778 (Viruses, 2018).

As usually defined, the EC50 is the concentration giving half of the maximal effect.

In the assay the test system is rMERS-CoV-S2. In kind it is cell-based, MERS-CoV.

For `CN1CCN(CCOc2cc(OC3CCOCC3)c3c(Nc4c(Cl)ccc5c4OCO5)ncnc3c2)CC1` [Saracatinib], the response was half-maximal at 9 µM (EC50). That is a single-digit micromolar value.
